Test results published in ChEMBL document CHEMBL3885881, “DrugMatrix”.
Starred links: 1 amine or outer side, 2 acyl side, 3 side chain; linkers in the order of their positions; H or OH if unused. Positions of bridges follow the written chain, without caps; N, C: chain ends. Non-standard residues stand in square brackets, D forms with d. Residues, ends and D or L forms follow the SMILES beside them. Chains are numbered I, II in the order given. Actinocin(9to1) = Cc1c2oc3c(C)ccc(C(=O)[*:1])c3nc-2c(C(=O)[*:2])c(N)c1=O; NMeV = CN[C@H](C(=O)O)C(C)C; Sar = CNCC(=O)O

Species on record: Rattus norvegicus
Assay: DrugMatrix - Regimen: Daily Repeat
Assay type: toxicity, organism-based, Sprague-Dawley
Design: regimen Daily Repeat, gender Male, age 6-8 weeks
Settings: in vivo, iv, vehicle 100 % SALINE; for ABSOLUTE BASOPHIL / ABSOLUTE EOSINOPHIL / ABSOLUTE LYMPHOCYTE / ABSOLUTE MONOCYTE / ABSOLUTE SEGMENTED NEUTROPHIL / BASOPHIL / EOSINOPHIL / ERYTHROCYTE COUNT / HEMATOCRIT / HEMOGLOBIN / LEUKOCYTE COUNT / LYMPHOCYTE / MEAN CORPUSCULAR HEMOGLOBIN / MEAN CORPUSCULAR HEMOGLOBIN CONCENTRATION / MEAN CORPUSCULAR VOLUME / MONOCYTE / NEUTROPHIL / NUCLEATED RED BLOOD CELLS / PLATELET COUNT: tissue Blood; for ALANINE AMINOTRANSFERASE / ALBUMIN / ALKALINE PHOSPHATASE / ASPARTATE AMINOTRANSFERASE / BLOOD UREA NITROGEN / CARBON DIOXIDE / CHLORIDE / CHOLESTEROL / CREATINE PHOSPHOKINASE / CREATININE / GLUCOSE / LACTATE DEHYDROGENASE / LIPASE / PHOSPHORUS / POTASSIUM / SODIUM / TOTAL BILIRUBIN / TOTAL PROTEIN / URIC ACID: tissue Plasma
[1] = 0.006 mg/kg, 120 h, dose level Low, time 5 day
[2] = 0.06 mg/kg, 72 h, dose level High, time 3 day
[3] = 0.06 mg/kg, 120 h, dose level High, time 5 day

Cc1c2oc3c(C)ccc(C(=O)N[C@@H]4C(=O)N[C@H](C(C)C)C(=O)N5CCC[C@H]5C(=O)N(C)CC(=O)N(C)[C@@H](C(C)C)C(=O)O[C@@H]4C)c3nc-2c(C(=O)N[C@@H]2C(=O)N[C@H](C(C)C)C(=O)N3CCC[C@H]3C(=O)N(C)CC(=O)N(C)[C@@H](C(C)C)C(=O)O[C@@H]2C)c(N)c1=O [DACTINOMYCIN] (I: T[dV]P[Sar][NMeV] / II: T[dV]P[Sar][NMeV]; ester I:1-I:C, II:1-II:C; linker I:N-II:N via Actinocin(9to1))
ABSOLUTE BASOPHIL [1]: 0 CELLS/uL
ABSOLUTE EOSINOPHIL [1]: 221.33 CELLS/uL
ABSOLUTE LYMPHOCYTE [1]: 12705.67 CELLS/uL
ABSOLUTE MONOCYTE [1]: 103.33 CELLS/uL
ABSOLUTE SEGMENTED NEUTROPHIL [1]: 1369.67 CELLS/uL
BASOPHIL [1]: 0%
EOSINOPHIL [1]: 1.33%
ERYTHROCYTE COUNT [1]: 5.39 x10E6/uL
HEMATOCRIT [1]: 33.7%
HEMOGLOBIN [1]: 13.67 G/DL
LEUKOCYTE COUNT [1]: 14.4 x10E3/uL
LYMPHOCYTE [1]: 88.67%
MEAN CORPUSCULAR HEMOGLOBIN [1]: 25.37 pg
MEAN CORPUSCULAR HEMOGLOBIN CONCENTRATION [1]: 40.57 G/DL
MEAN CORPUSCULAR VOLUME [1]: 62.57 fL
MONOCYTE [1]: 0.67%
NEUTROPHIL [1]: 9.33%
NUCLEATED RED BLOOD CELLS [1]: 0 /100WBC
PLATELET COUNT [1]: 1209 x10E3/uL
ALANINE AMINOTRANSFERASE [1]: 51 u/L
ALBUMIN [1]: 4.1 G/DL
ALKALINE PHOSPHATASE [1]: 297 u/L
ASPARTATE AMINOTRANSFERASE [1]: 130.67 u/L
BLOOD UREA NITROGEN [1]: 15 mg/dL
CARBON DIOXIDE [1]: 27.33 mmol/L
CHLORIDE [1]: 102 MEQ/L
CHOLESTEROL [1]: 77 mg/dL
CREATINE PHOSPHOKINASE [1]: 1455.33 u/L
CREATININE [1]: 0.22 mg/dL
GLUCOSE [1]: 155.33 mg/dL
LACTATE DEHYDROGENASE [1]: 798.33 u/L
LIPASE [1]: 10.33 u/L
PHOSPHORUS [1]: 11.03 mg/dL
POTASSIUM [1]: 5.31 MEQ/L
SODIUM [1]: 143.1 MEQ/L
TOTAL BILIRUBIN [1]: 0.17 mg/dL
TOTAL PROTEIN [1]: 6.13 G/DL
URIC ACID [1]: 1.37 mg/dL
ABSOLUTE BASOPHIL [2]: 0 CELLS/uL
ABSOLUTE EOSINOPHIL [2]: 0 CELLS/uL
ABSOLUTE LYMPHOCYTE [2]: 13952.33 CELLS/uL
ABSOLUTE MONOCYTE [2]: 166 CELLS/uL
ABSOLUTE SEGMENTED NEUTROPHIL [2]: 748.33 CELLS/uL
BASOPHIL [2]: 0%
EOSINOPHIL [2]: 0%
ERYTHROCYTE COUNT [2]: 5.81 x10E6/uL
HEMATOCRIT [2]: 35.17%
HEMOGLOBIN [2]: 13.97 G/DL
LEUKOCYTE COUNT [2]: 14.87 x10E3/uL
LYMPHOCYTE [2]: 93.67%
MEAN CORPUSCULAR HEMOGLOBIN [2]: 24.13 pg
MEAN CORPUSCULAR HEMOGLOBIN CONCENTRATION [2]: 39.8 G/DL
MEAN CORPUSCULAR VOLUME [2]: 60.7 fL
MONOCYTE [2]: 1%
NEUTROPHIL [2]: 5.33%
NUCLEATED RED BLOOD CELLS [2]: 0 /100WBC
PLATELET COUNT [2]: 1121.67 x10E3/uL
ALANINE AMINOTRANSFERASE [2]: 41.67 u/L
ALBUMIN [2]: 4.4 G/DL
ALKALINE PHOSPHATASE [2]: 262.67 u/L
ASPARTATE AMINOTRANSFERASE [2]: 85.33 u/L
BLOOD UREA NITROGEN [2]: 15.67 mg/dL
CARBON DIOXIDE [2]: 26 mmol/L
CHLORIDE [2]: 99.67 MEQ/L
CHOLESTEROL [2]: 81.33 mg/dL
CREATINE PHOSPHOKINASE [2]: 562.67 u/L
CREATININE [2]: 0.16 mg/dL
GLUCOSE [2]: 154.33 mg/dL
LACTATE DEHYDROGENASE [2]: 357.33 u/L
LIPASE [2]: 10.33 u/L
PHOSPHORUS [2]: 11.93 mg/dL
POTASSIUM [2]: 6.38 MEQ/L
SODIUM [2]: 140.17 MEQ/L
TOTAL BILIRUBIN [2]: 0.2 mg/dL
TOTAL PROTEIN [2]: 6.13 G/DL
URIC ACID [2]: 1.6 mg/dL
ABSOLUTE BASOPHIL [3]: 0 CELLS/uL
ABSOLUTE EOSINOPHIL [3]: 0 CELLS/uL
ABSOLUTE LYMPHOCYTE [3]: 13429.67 CELLS/uL
ABSOLUTE MONOCYTE [3]: 267.67 CELLS/uL
ABSOLUTE SEGMENTED NEUTROPHIL [3]: 1069.33 CELLS/uL
BASOPHIL [3]: 0%
EOSINOPHIL [3]: 0%
ERYTHROCYTE COUNT [3]: 5.63 x10E6/uL
HEMATOCRIT [3]: 35%
HEMOGLOBIN [3]: 13.77 G/DL
LEUKOCYTE COUNT [3]: 14.77 x10E3/uL
LYMPHOCYTE [3]: 90.67%
MEAN CORPUSCULAR HEMOGLOBIN [3]: 24.5 pg
MEAN CORPUSCULAR HEMOGLOBIN CONCENTRATION [3]: 39.37 G/DL
MEAN CORPUSCULAR VOLUME [3]: 62.17 fL
MONOCYTE [3]: 1.67%
NEUTROPHIL [3]: 7.67%
NUCLEATED RED BLOOD CELLS [3]: 0 /100WBC
PLATELET COUNT [3]: 1163.67 x10E3/uL
ALANINE AMINOTRANSFERASE [3]: 41 u/L
ALBUMIN [3]: 4.2 G/DL
ALKALINE PHOSPHATASE [3]: 279.33 u/L
ASPARTATE AMINOTRANSFERASE [3]: 79.33 u/L
BLOOD UREA NITROGEN [3]: 19.33 mg/dL
CARBON DIOXIDE [3]: 29 mmol/L
CHLORIDE [3]: 99.67 MEQ/L
CHOLESTEROL [3]: 62.33 mg/dL
CREATINE PHOSPHOKINASE [3]: 327.33 u/L
CREATININE [3]: 0.23 mg/dL
GLUCOSE [3]: 148.67 mg/dL
LACTATE DEHYDROGENASE [3]: 429.67 u/L
LIPASE [3]: 10 u/L
PHOSPHORUS [3]: 12.3 mg/dL
POTASSIUM [3]: 6.67 MEQ/L
SODIUM [3]: 140.87 MEQ/L
TOTAL BILIRUBIN [3]: 0.23 mg/dL
TOTAL PROTEIN [3]: 6.2 G/DL
URIC ACID [3]: 1.7 mg/dL
